Results on four compounds are retold here after PMC5407626 (PLoS ONE, 2017).

Where “and” joins values, the source holds several entries; their conditions need not be identical. Equal entries are not always repeated. Where two headings read alike, the source gives them in different places.

The target of data set [1] is T1, RARβ (Homo sapiens, UniProt P10826).
T1 sequence (P10826 183-417 limits assumed): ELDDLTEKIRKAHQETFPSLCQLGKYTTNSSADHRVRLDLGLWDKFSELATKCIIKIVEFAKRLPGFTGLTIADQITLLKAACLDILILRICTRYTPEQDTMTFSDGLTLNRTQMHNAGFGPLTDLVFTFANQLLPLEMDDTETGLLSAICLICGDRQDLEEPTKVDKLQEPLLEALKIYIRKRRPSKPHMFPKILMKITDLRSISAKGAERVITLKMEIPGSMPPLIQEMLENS
The data set is described as follows: GeneBLAzer RAR-beta DA assay, antagonist mode (competition with at-RA). Type of data set: cell-based. Conditions: for competition with all-trans-retinoic acid: at-RA 0.5–1.5 nM, tested 10^−5 to 10^−9 M. The procedure: (§1) The potency of agonists and antagonists was measured by GeneBLAzer RAR-beta DA Assay Kit (ThermoFisher Scientific) according to the manufacturer’s recommendations.
The phenylretinamides may have the ability to modulate the expression of proteins and induce cell apoptosis via RAR-dependent and -independent pathways. […] Additionally, apoptosis of neuroblastoma cell lines was blocked by two retinoic acid receptor (RAR)-β/γ-specific antagonists, but not by a RARα-specific antagonist. […] However, in this case the specific RARα-specific antagonist AGN194301 could block fenretinde-induced apoptosis. […] Human retina-derived cells in culture show differences in expression of RAR receptors. […] Clonetics HRPE primary human cells specifically express only RARβ [50].
Fluorescence was measured at excitation (ex) 409 nm/emission (em) 460 and at ex 409nm/em 530 nm and the ratio was determined and plotted against a range of concentrations (10^−5 to 10^−9 M) of the tested compounds.

The conditions of data set [2]: humans; cited from earlier work.
The next data set addresses RBP4 (Homo sapiens, UniProt P02753). Also on record: method as in PMID 16303925. As to conditions: cited from earlier work.
The next data set deals with T2, SCD1 (Homo sapiens, UniProt O00767).
T2 construct: endogenous in cells; host or cells: ARPE-19
T2 sequence (O00767 1-359): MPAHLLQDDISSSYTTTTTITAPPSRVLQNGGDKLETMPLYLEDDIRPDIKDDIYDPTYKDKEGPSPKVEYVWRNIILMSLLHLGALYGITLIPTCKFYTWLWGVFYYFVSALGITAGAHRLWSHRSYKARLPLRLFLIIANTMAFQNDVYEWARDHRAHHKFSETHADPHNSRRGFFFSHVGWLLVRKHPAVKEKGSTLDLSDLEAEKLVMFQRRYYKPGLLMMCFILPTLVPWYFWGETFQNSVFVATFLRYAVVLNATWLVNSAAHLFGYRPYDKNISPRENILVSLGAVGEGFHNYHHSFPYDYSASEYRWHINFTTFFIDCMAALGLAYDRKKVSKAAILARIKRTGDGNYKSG
The data set is described as follows: SCD1 activity in ARPE-19 cells (conversion of methyl-D3 palmitic acid to methyl-D3 palmitoleic acid, LC/MS). Conditions: for Palmitate (AUC) / Ratio (16:0 / 16:1) / Palmitoleic Acid (AUC): 10 μM 16 h, then 50 μM D3-palmitic acid 5 h, single samples; for Mean Ratio (16:0 / 16:1) / effect on SCD1 activity: 10 μM; for Mean Ratio (16:0 / 16:1): mean of 3 samples, DMSO 8.884; for effect on SCD1 activity: ARPE-19 cells. Type of data set: cell-based. As to the method: Compounds were dissolved in dimethyl sulfoxide (DMSO) and then added to the cell culture medium. Cells designated as control received an equal amount of dimethyl sulfoxide. After 16 h, cells were incubated with 50 μM palmitic acid triply deuterated (D3) on the methyl group (Cambridge Isotope Laboratories, Tewksbury, MA) for an additional 5 h before harvesting.
Cells were detached from culture plates using 0.05% Trypsin-EDTA, washed with PBS, and pelleted. Cell pellets were resuspended in 450 μl Cell Lysis Buffer (Cell Signaling Technology, Danvers, MA) then sonicated on ice until uniformly dispersed. An aliquot (50 μl) of the dispersed cell suspension was used for protein quantitation, and the remaining 400 μl was used for lipid extraction as follows. Samples were spiked with a small volume of pentadecanoic acid (in CHCl3) as internal standard, and were then subjected to saponification (by addition of an equal volume of 0.6 M methanolic KOH and incubating at 72°C for 15 minutes). Following saponification, samples were acidified by addition of 100 μl formic acid. The acidified mixture was extracted twice with 1 ml chloroform to recover free fatty acids. The chloroform extracts were pooled, solvent was evaporated under argon at 37°C, and the residue was resolubilized in 100 μl chloroform/methanol (1:4) for analysis by liquid chromatography mass spectrometry (LC/MS) using a modification of the procedures of Dillon et al.. The LC-MS system consisted of a 1200 Series Capillary LC (Agilent, Santa Clara, CA) coupled to a Micromass Q-Tof micro mass spectrometer (Waters Corp., Milford, MA) equipped with an electrospray ionization source. Separation of fatty acids was achieved by isocratic elution on a PLRP-S polymeric reversed-phase column (100 Å, 3 μm, 2.1 x 150 mm; Agilent) heated to 65°C. A mobile phase consisting of 25% acetonitrile:chloroform (1:1), 40% methanol, 25% water, 10% 10 mM ammonium acetate was run at a flow rate of 0.1 ml/min. The mass spectral analysis of the fatty acids was performed in the negative ion mode using the following instrument settings: capillary voltage, 1600; sample cone voltage, 40; cone gas flow, 40 L/hr; desolvation gas flow, 400 L/hr; source temperature, 80°C; desolvation temperature, 100°C. Data was then analyzed using MassLynx software v 4.1 (Waters) by extracting the ion chromatograms of the labeled palmitic and palmitoleic acid peaks and measuring peak area.
Cell lysates were analyzed by Western blotting using mouse monoclonal antibody against SCD1 (upper panel) in comparison with immunoreactivity to α-tubulin which was employed as a loading control (lower panel) and densitometry for each lane was performed and analyzed by ImageJ to provide the SCD1/α-tubulin ratio for each lane. […] Free fatty acids present in lipid extracts were analyzed by LC/MS and SCD1 activity, measured by the conversion of methyl-D3 palmitic acid to methyl-D3 palmitoleic acid, was determined. […] Lipids were extracted from two 100 mm Petri dishes and combined for mass spectrometry analysis. Data plotted as means ± standard deviation; n = 3. […] They are given here as printed results in cells, but it is uncertain whether they fall under the exclusion for gels and blots. / Panel A: the Control lane (1.00) is left out because it is not a substance.

Data set [3] has as its target T1, RARβ. Nature of the data set: GeneBLAzer RAR-beta DA assay, agonist mode. The format is cell-based. The procedure: as §1
The phenylretinamides may have the ability to modulate the expression of proteins and induce cell apoptosis via RAR-dependent and -independent pathways. […] Human retina-derived cells in culture show differences in expression of RAR receptors. […] Clonetics HRPE primary human cells specifically express only RARβ [50].

The target of data set [4] is T1, RARβ. Also on record: method as in Invitrogen. As to conditions: RARβ agonist assay; ref Invitrogen; read-out: EC50 from Invitrogen; cited from earlier work.
For data set [5] the following is noted: mice, after 4 hours of treatment; cited from earlier work.

Take `COc1ccc(NC(=O)/C=C(C)/C=C/C=C(C)/C=C/C2=C(C)CCCC2(C)C)cc1` [MPR, N-[4-methoxyphenyl]retinamide]: the “competition with all-trans-retinoic acid” value at RARβ [1] is reported as “cannot compete”. In addition, the “metabolite level as % of plasma levels of 4-HPR” value in data set [2] was ~ 45%. In addition, on RBP4, the “affinity for RBP4 lower than for fenretinide or retinol” value is given as 2 fold. The Kd at RBP4 (read-out: affinity for RBP4) is approximately 100 nM. Moreover, on SCD1, the “Palmitate (AUC)” value is 2368.01 and 2526.72 and 1327.38; the “Ratio (16:0 / 16:1)” value was 8.882 and 7.657 and 8.556; the “Mean Ratio (16:0 / 16:1)” value is recorded as 8.365; the “effect on SCD1 activity” value is “no inhibitory effect on SCD1 activity at all”. On RARβ [3], the EC50 (as a rule, the concentration giving half of the maximal effect) was 1000 nM and 1010 nM.

For the compound `CC1=C(/C=C/C(C)=C/C=C/C(C)=C/C(=O)Nc2ccc(O)cc2)C(C)(C)CCC1` [fenretinide, N-[4-hydroxyphenyl]retinamide], the IC50 (usually the concentration at which inhibition is half-maximal) at RARβ [1] (competition with 1 nM at-RA) stood at 10000 nM. Further, the EC50 on RARβ [4] was 220 nM. Also, at SCD1 (listed as 4HPR), the “Palmitate (AUC)” value is 1258.94 and 1398.36 and 1783.91; the “Palmitoleic Acid (AUC)” value was 12.20 and 15.08 and 14.79. The “effect on SCD1 activity” value at SCD1 is “effective inhibitors of SCD1 activity”. At RARβ [3], this compound had an EC50 of 560 nM.

Consider `O=C(O)c1ccccc1NC(=O)N1CCC(c2ccccc2C(F)(F)F)CC1` [A1120], for which the “competition with all-trans-retinoic acid” value on RARβ [1] is listed as “cannot compete”. Further, on SCD1, the “Palmitate (AUC)” value was 625.27 and 963.80 and 854.94; the “Palmitoleic Acid (AUC)” value was 74.04 and 107.80 and 111.92; the “Ratio (16:0 / 16:1)” value is 8.445 and 8.941 and 7.639; the “Mean Ratio (16:0 / 16:1)” value came to 8.342. In addition, the “effect on SCD1 activity” value at SCD1 is “no inhibitory effect on SCD1 activity at all”.

As to `CC1=C(/C=C/C(C)=C/C=C/C(C)=C/C(=O)Nc2ccc(O)cc2)C(C)(C)CCC1=O` [3-keto-HPR, 4-oxo-N-(4-hydroxyphenyl)retinamide], at SCD1, the “Palmitate (AUC)” value is 1476.16 and 1271.38 and 1913.30; the “Palmitoleic Acid (AUC)” value was 17.56 and 10.07 and 19.08; the “Ratio (16:0 / 16:1)” value is 84.064 and 126.254 and 100.278; the “Mean Ratio (16:0 / 16:1)” value was 103.532. Further, the “effect on SCD1 activity” value at SCD1 is listed as “effective inhibitors of SCD1 activity”. Besides, the “metabolite level as % of plasma levels of 4-HPR” value in data set [5] is ~ 23%.
